Reference: ChEMBL document CHEMBL1201862, “PubChem BioAssay data set” (2004)
The source made the active and inactive calls.

Columns and labels:
[1] = biological target: Acylamino-acid-releasing enzyme (Homo sapiens, UniProt P13798); assay: endogenous PME-1 and serine hydrolase inhibition – cell lysate, mouse brain cytosol, FP-rhodamine, gel ABPP, selectivity assay for PME-1 inhibitor project, dose response, panel member APEH Assay Panel member description: Inhibition of N-acylaminoacyl-peptide hydrolase (APEH) (anti-target) (AID 2366)
[2] = biological target: G-protein coupled receptor 55 (Homo sapiens, UniProt Q9Y2T6); assay: selective activators of receptor GPR55 – imaging, U2OS cells, beta-arrestin-GFP redistribution, primary screen (AID 1961); type: functional
[3] = biological target: T1, Replicative DNA helicase DnaB (Mycobacterium tuberculosis, UniProt P9WMR3); assay: DnaB intein splicing inhibitors, dose response, biochemical, cell-free fluorescence (AID 449749); type: functional
T1 sequence (P9WMR3 whole entry): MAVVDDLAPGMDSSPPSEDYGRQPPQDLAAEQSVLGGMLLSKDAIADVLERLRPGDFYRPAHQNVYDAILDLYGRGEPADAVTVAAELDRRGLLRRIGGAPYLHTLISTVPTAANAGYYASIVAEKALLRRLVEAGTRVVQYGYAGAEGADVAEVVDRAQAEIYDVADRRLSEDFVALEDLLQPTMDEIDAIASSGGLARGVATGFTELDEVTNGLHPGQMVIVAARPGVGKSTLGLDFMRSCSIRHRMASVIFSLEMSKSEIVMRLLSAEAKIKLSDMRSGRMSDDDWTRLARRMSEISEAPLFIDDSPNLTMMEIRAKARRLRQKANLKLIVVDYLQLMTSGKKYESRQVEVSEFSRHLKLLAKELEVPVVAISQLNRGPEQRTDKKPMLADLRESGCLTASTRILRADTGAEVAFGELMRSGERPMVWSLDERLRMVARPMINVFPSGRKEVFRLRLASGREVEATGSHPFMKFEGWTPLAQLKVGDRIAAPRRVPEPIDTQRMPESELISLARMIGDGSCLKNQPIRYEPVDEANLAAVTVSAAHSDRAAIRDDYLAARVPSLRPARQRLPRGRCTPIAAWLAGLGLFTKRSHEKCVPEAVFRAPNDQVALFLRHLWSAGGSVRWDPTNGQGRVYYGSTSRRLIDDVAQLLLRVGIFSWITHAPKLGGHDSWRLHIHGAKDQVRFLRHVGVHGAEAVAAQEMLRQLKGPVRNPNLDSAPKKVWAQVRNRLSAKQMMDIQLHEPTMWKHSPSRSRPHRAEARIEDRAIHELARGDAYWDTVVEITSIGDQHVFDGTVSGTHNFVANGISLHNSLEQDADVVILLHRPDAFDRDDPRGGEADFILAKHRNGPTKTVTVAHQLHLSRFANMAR

Protein RecA = biological target: T2, Protein RecA (Mycobacterium tuberculosis, UniProt P9WHJ3); assay: Fluorescence Cell-Free Homogeneous Dose Retest to Identify Inhibitors of RecA-Intein Splicing Activity. [Related pubchem assays (depositor defined):AID2097, AID2223, AID489010, AID492950]; type: functional
T2 sequence (P9WHJ3 whole entry): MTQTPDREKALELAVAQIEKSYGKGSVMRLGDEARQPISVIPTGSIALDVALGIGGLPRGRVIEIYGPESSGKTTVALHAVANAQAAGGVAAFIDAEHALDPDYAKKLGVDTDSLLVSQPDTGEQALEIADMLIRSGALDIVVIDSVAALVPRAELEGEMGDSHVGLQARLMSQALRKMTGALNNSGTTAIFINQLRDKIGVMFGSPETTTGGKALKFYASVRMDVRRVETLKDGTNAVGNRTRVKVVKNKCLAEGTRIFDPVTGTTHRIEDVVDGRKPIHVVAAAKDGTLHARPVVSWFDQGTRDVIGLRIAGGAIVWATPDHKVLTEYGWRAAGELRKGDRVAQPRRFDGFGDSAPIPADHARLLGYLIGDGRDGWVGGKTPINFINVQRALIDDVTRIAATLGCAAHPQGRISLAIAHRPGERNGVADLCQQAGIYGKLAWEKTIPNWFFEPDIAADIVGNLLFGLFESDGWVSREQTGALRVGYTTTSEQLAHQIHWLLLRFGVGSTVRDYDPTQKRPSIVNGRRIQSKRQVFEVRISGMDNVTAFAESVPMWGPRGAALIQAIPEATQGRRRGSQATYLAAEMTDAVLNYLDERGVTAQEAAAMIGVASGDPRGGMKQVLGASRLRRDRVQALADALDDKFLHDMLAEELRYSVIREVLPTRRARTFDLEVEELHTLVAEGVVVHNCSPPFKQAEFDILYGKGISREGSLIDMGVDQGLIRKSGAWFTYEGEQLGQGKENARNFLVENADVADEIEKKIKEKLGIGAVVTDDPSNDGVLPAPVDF

[4] = biological target: T3, Neuropeptides B/W receptor type 1 (Homo sapiens, UniProt P48145); assay: human NPBW1 receptor blockade, IC50 – cell-based, fluorescence, dose response, late-stage follow-up (AID 463251); type: functional
T3 sequence (P48145 whole entry): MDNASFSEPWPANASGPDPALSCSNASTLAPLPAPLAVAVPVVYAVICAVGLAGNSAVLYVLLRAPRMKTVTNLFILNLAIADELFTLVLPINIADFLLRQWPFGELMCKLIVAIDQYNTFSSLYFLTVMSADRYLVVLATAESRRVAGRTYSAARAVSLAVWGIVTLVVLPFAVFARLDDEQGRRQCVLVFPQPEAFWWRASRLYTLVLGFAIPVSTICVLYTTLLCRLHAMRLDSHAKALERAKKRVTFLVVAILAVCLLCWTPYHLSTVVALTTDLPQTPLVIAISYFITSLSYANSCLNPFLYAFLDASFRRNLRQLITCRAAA

[5] = biological target: Melanin-concentrating hormone receptor 1 (Homo sapiens, UniProt Q99705); assay: Late-stage fluorescence-based counterscreen for antagonists of the G-protein coupled receptor 7 (GPR7): cell-based dose response assay to identify antagonists of the melanin-concentrating hormone receptor 1 (MCHR1). [Related pubchem assays (depositor defined):AID1861, AID1880, AID1952, AID2148, AID2251, AID2257, AID485339]; type: functional;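 further: stimulated with 30 nM MCH peptide agonist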
Caspase-7 = biological target: T4, Caspase-7 (Homo sapiens, UniProt P55210); assay: activation of caspase-7 zymogen – biochemical, absorbance, counter-screen for procaspase-3 activator project, dose response (AID 489013)
T4 sequence (P55210 whole entry): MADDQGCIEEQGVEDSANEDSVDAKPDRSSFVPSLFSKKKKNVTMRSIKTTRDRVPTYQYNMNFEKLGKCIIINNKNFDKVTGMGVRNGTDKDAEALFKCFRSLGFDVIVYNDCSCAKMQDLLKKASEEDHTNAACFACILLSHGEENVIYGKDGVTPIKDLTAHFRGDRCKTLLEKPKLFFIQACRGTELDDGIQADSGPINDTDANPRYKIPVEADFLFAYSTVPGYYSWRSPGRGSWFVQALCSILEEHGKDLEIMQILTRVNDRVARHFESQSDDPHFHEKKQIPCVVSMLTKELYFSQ

Caspase-3 = biological target: T5, Caspase-3 (Homo sapiens, UniProt P42574); assay: activation of caspase-3 zymogen – biochemical, absorbance, dose response (AID 489014)
T5 sequence (P42574 whole entry): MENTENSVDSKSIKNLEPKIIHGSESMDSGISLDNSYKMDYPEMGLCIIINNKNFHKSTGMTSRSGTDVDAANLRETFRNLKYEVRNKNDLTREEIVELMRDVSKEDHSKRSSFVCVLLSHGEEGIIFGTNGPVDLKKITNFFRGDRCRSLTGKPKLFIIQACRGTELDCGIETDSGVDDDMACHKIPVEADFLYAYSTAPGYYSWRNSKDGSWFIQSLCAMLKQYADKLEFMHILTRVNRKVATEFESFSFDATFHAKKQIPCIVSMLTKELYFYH

[6] = biological target: T6, Heat shock factor protein 1 (Mus musculus, UniProt P38532); assay: decrease of HSF1-responsive luciferase luminescence – cell-based, NIH3T3, dose retest, confirmation (AID 2382); type: functional;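 further: NIH3T3 fibroblasts with HSF1-driven luciferase reporter stressed by proteasome inhibitor MG132; luminescence from HSF1-driven luciferase expression after 8 hours of MG132 stress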
T6 sequence (P38532 whole entry): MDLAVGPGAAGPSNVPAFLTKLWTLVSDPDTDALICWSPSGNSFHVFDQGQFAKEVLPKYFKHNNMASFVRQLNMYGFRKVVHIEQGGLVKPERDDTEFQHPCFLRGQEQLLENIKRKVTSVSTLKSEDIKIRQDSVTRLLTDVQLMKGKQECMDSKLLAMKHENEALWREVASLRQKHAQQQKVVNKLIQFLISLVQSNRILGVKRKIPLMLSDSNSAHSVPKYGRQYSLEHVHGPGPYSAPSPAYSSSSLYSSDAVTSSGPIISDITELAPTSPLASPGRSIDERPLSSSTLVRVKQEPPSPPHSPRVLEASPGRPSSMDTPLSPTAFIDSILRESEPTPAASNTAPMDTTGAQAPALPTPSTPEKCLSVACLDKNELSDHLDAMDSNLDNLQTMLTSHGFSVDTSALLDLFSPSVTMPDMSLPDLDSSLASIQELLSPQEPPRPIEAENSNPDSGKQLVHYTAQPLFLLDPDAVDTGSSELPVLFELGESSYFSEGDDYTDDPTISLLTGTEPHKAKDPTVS

Chain of Acylamino-acid-releasing enzyme (P13798 whole entry): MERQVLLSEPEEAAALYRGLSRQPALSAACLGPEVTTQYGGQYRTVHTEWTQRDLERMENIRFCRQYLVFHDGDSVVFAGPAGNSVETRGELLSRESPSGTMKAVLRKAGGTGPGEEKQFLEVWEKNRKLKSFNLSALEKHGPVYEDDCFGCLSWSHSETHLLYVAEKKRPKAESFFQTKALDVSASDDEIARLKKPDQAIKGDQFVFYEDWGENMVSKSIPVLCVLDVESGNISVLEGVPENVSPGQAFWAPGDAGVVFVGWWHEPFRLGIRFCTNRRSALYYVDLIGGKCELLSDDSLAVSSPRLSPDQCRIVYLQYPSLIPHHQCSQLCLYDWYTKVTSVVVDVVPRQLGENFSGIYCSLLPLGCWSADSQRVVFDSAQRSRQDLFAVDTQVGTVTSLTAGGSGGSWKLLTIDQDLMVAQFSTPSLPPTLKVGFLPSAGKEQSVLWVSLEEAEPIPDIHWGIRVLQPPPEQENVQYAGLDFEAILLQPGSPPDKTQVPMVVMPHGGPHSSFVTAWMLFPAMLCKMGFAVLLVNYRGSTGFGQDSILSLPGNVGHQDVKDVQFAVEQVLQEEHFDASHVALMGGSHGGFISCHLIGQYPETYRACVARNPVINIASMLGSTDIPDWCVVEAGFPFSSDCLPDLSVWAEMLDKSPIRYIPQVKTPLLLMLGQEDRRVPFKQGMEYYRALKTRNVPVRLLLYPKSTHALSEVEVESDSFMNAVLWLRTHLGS
Chain of Melanin-concentrating hormone receptor 1 (Q99705 whole entry): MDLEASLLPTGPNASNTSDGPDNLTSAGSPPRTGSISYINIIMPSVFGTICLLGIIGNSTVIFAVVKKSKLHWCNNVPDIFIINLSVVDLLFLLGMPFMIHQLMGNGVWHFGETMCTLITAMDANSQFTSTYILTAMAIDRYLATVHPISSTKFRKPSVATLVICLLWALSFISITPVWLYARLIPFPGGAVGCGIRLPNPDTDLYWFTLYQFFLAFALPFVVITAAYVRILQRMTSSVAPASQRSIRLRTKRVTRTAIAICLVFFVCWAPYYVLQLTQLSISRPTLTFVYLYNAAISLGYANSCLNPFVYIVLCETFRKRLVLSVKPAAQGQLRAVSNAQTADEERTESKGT
Chain of G-protein coupled receptor 55 (Q9Y2T6 whole entry): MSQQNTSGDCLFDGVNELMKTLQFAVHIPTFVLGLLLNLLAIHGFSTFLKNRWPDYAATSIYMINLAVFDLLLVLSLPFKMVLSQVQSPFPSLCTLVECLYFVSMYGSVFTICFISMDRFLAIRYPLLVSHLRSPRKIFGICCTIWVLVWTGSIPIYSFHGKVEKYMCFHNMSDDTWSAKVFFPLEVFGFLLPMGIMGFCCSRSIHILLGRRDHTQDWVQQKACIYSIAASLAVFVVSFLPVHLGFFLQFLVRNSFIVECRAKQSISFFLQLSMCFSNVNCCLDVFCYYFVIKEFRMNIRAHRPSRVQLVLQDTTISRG

## CS(=O)(=O)/C(C#N)=C/c1cccn1S(=O)(=O)c1ccc([N+](=O)[O-])cc1
[1]
  IC50: > 50 µM (inactive)

## Cc1ccc(C)c(-c2ccc(=O)n(Cc3cccc(Br)c3)n2)c1
[2]
  EC50: 3.48 µM (active)
[3]
  AC50: 4.88 µM (active)
Protein RecA
  EC50: 24.1 µM (active)

## O=C(C1CCCCN1Cc1ccc2ccccc2c1)N1CCN(c2ccc([N+](=O)[O-])cc2)CC1 (stereo not given)
[4]
  IC50: 4.1 µM (active)
[5]
  IC50: 3.1 µM (active)

## Cc1c(Cc2ccccc2)sc(/N=C/c2c(O)ccc3ccccc23)c1C(N)=O
Caspase-7
  EC50: > 85.3 µM (inactive)
Caspase-3
  EC50: > 85.3 µM (inactive)
[6]
  EC50: > 195 µM (not active)

## N#C/C(=C\c1cccn1S(=O)(=O)c1ccccc1)S(=O)(=O)c1ccc(F)cc1
[1]
  IC50: > 50 µM (inactive)
